# Test: In vitro release rate modulation across electrostatically gated nanofluidic membrane
# Settings: active phases, gate voltage −1.5 V, vs passive phases (0 V); sink 0.01×PBS
# Method: Release modulation experiments were performed with a custom made, two reservoirs fixture comprising of a macro cuvette (sink reservoir) and a drug reservoir. The cuvette was glued with UV epoxy (OG116, Epoxy Technologies, Inc.) to a PMMA (McMaster Carr, Douglasville, Ga.) membrane holder. The drug reservoir (500 μL capacity), made of PMMA, was secured to the membrane holder through 2 SS316L M3 screws. The membrane under testing was clamped between the two PMMA pieces, with 2 O-rings (2418T113, McMaster Carr, Douglasville, Ga.) to avoid solution leakage. The reservoir was capped with a silicone plugs (9277K87, McMaster Carr, Douglasville, Ga.).
# Release modulation experiments were performed using 300 nm membranes with both poly-Si and SiC deposition. […]
# The assembled diffusion fixtures were then loaded in a robotic carousel^20, which is connected to a Cary 50 UV-vis spectrophotometer (Agilent Technologies). Absorbance measurements of the sink reservoir were automatically performed every 5 minutes. […]
# Graphs were plotted and statistical data analyses were performed with GraphPad Prism 8 (version 8.1.1; GraphPad Software, Inc., La Jolla, Calif.). […] Statistical significance was determined using paired t-tests. […]
substance,measurement,value
Alexa Fluor 647 [AF647],reduction of release rate,60%

# — US20230043407A1, “ELECTROSTATICALLY GATED NANOFLUIDIC MEMBRANES FOR CONTROL OF MOLECULAR TRANSPORT” (THE METHODIST HOSPITAL SYSTEM, priority 2020, published 2023)
